Here are results for eleven compounds from ChEMBL document CHEMBL1201862, “PubChem BioAssay data set” (2004).

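Growth conditions: 96-well plates. Treatment: test compound, 48 hours, 5 concentrations. Analysis: linear interpolation between bracketing concentrations; unreached endpoints set to highest concentration. Abbreviation: GI50, concentration required for 50% inhibition of growth.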 Calls of active or inactive are those of the source. Rule as the data show it: active = GI50 up to about 1.1 µM and inactive = higher. Square brackets hold non-standard residues; d marks the D form. Peptide text beside a SMILES is read from it. Phe(4-Cl) = N[CH](Cc1ccc(Cl)cc1)C(=O)O; 2Nal = N[CH](Cc1ccc2ccccc2c1)C(=O)O; 3Pal = N[CH](Cc1cccnc1)C(=O)O

Some test systems named below: CCRF-CEM; SW-620; U-251; MOLT-4; HCT-116; Hs-578T; OVCAR-5; ACHN; 786-0; PC-3; NCI-H460; SN12C; LOX IMVI; NCI-H23; CAKI-1; MDA-MB-231; SR; SNB-75; EKVX; A498.
Common to all, as to assay: NCI anticancer screen, dose series, 48 h

Take `Cc1ccc(C2SC(=N)Nc3c2c(C)nn3C(=O)c2ccncc2)cc1` (stereo not given): the GI50 with CCRF-CEM, in the assay on SW-620, in the assay with U-251, in the assay on MOLT-4, in the assay on HCT-116 and in the assay on Hs-578T was > 10 µM (inactive) throughout. Besides, the GI50 with OVCAR-5, in the assay with ACHN, in the assay with 786-0, with PC-3, in the assay on NCI-H460 and in the assay on SN12C was > 10 µM (inactive) in each case. Besides, the GI50 in the assay with LOX IMVI, with NCI-H23, in the assay on CAKI-1, in the assay with MDA-MB-231, in the assay with SR and in the assay with SNB-75 was > 10 µM (inactive) each time.

On to `Cc1ccc(C2(O)CS/C(=N\C34CC5CC(CC(C5)C3)C4)N2C(P(=O)(O)O)P(=O)(O)O)cc1` (stereo not given), for which the GI50 in the assay on SW-620 is > 100 µM (inactive); with U-251, 38.6 µM (inactive); in the assay with MOLT-4 it was 37.9 µM (inactive); in the assay with HCT-116 it was 37.1 µM (inactive); with Hs-578T it was 73.1 µM (inactive); in the assay on OVCAR-5, 82.8 µM (inactive). Also, the GI50 in the assay on ACHN was > 100 µM (inactive); in the assay with 786-0 it was > 100 µM (inactive); in the assay on PC-3, 79.3 µM (inactive); in the assay on NCI-H460, 41.3 µM (inactive); with SN12C, 89.3 µM (inactive); in the assay on EKVX, > 100 µM (inactive). The GI50 in the assay on NCI-H23 is > 100 µM (inactive); in the assay with A498, 82.8 µM (inactive); in the assay on CAKI-1, > 100 µM (inactive); in the assay on MDA-MB-231, 56.6 µM (inactive); with SR it was 29.2 µM (inactive); in the assay on SNB-75, 38.6 µM (inactive).

Consider `O=C1CCN(CCC(F)(F)C(F)(F)C(F)(F)C(F)(F)C(F)(F)C(F)(F)F)C(=S)N1CCC(F)(F)C(F)(F)C(F)(F)C(F)(F)C(F)(F)C(F)(F)F`, for which the GI50 in the assay on CCRF-CEM, in the assay on SW-620, in the assay with U-251, in the assay on MOLT-4, with HCT-116 and with Hs-578T was > 100 µM (inactive) in each case. The GI50 with OVCAR-5, in the assay on ACHN, with 786-0, in the assay with PC-3, in the assay on NCI-H460 and in the assay on SN12C was > 100 µM (inactive) in each case. For the same compound, the GI50 with EKVX, in the assay with NCI-H23, in the assay with A498, in the assay with CAKI-1, in the assay on MDA-MB-231 and in the assay with SR was > 100 µM (inactive) each time. Also, in the assay on SNB-75, the GI50 was > 100 µM (inactive).

With `COc1cc(Cn2c3c(c4c(C(=O)NCCN(C)C)c(O)ccc42)C(=O)c2ccccc2C3=O)cc(OC)c1`, the GI50 in the assay with CCRF-CEM is 0.601 µM (active); with U-251, 1.64 µM (inactive); in the assay with HCT-116, 1.76 µM (inactive); with Hs-578T, 1.79 µM (inactive); with OVCAR-5, 1.67 µM (inactive); with ACHN, 1.48 µM (inactive). Also, the GI50 is 0.501 µM (active) in the assay with 786-0; 1.7 µM (inactive) with PC-3; 1.79 µM (inactive) in the assay with NCI-H460; 1.85 µM (inactive) in the assay with SN12C; 1.82 µM (inactive) with EKVX; 2.09 µM (inactive) in the assay with NCI-H23. Besides, the GI50 in the assay on A498 was 1.95 µM (inactive); with CAKI-1, 1.68 µM (inactive); in the assay with MDA-MB-231, 2.1 µM (inactive); in the assay on SR, 0.31 µM (active); in the assay on SNB-75, 1.91 µM (inactive).

As to `CC(=O)NC(Cc1ccc2ccccc2c1)C(=O)NC(Cc1ccc(Cl)cc1)C(=O)NC(Cc1cccnc1)C(=O)NC(CO)C(=O)NC(Cc1ccc(O)cc1)C(=O)NC(CCCN=C(N)N)C(=O)NC(CC(C)C)C(=O)NC(CCCN=C(N)N)C(=O)N1CCCC1C(=O)NC(C)C(N)=O` (stereo not given) (Ac-[2Nal][Phe(4-Cl)][3Pal]SYRLRPA-NH2; configuration not given here), the GI50 in the assay on CCRF-CEM was > 100 µM (inactive); with SW-620, > 100 µM (inactive); in the assay on U-251 it was > 100 µM (inactive); in the assay on MOLT-4, > 100 µM (inactive); in the assay on Hs-578T, 50.2 µM (inactive); with OVCAR-5, > 100 µM (inactive). Also, the GI50 in the assay on ACHN is > 100 µM (inactive); in the assay with 786-0 it was 69.7 µM (inactive); in the assay with PC-3, > 100 µM (inactive); in the assay on NCI-H460, 95.5 µM (inactive); in the assay with SN12C, > 100 µM (inactive); with EKVX it was > 100 µM (inactive). For the same compound, the GI50 with NCI-H23 is > 100 µM (inactive); with A498, > 100 µM (inactive); in the assay with CAKI-1, > 100 µM (inactive); with MDA-MB-231 it was > 100 µM (inactive); with SR, > 100 µM (inactive); with SNB-75 it was 88.9 µM (inactive).

Regarding `COC(=O)/C=C/N1CC1`, the GI50 with CCRF-CEM was > 10 µM (inactive); with U-251, 5.41 µM (inactive); in the assay on MOLT-4, > 10 µM (inactive); with HCT-116, > 10 µM (inactive); in the assay on Hs-578T, > 10 µM (inactive); in the assay on OVCAR-5, 4.76 µM (inactive). Further, the GI50 with ACHN is > 10 µM (inactive); in the assay with 786-0, > 10 µM (inactive); with PC-3, 3.12 µM (inactive); in the assay on NCI-H460, > 10 µM (inactive); in the assay on SN12C it was > 10 µM (inactive); in the assay on EKVX, > 10 µM (inactive). In addition, the GI50 was > 10 µM (inactive) in the assay on NCI-H23; > 10 µM (inactive) with CAKI-1; > 10 µM (inactive) in the assay with MDA-MB-231; > 10 µM (inactive) in the assay with SR; 3.48 µM (inactive) in the assay on SNB-75.

In the case of `Cc1ccc(O)c(/N=N\c2c(O)cc(S(=O)(=O)O)c3ccccc23)c1`, the GI50 in the assay on CCRF-CEM is 23.1 µM (inactive); in the assay with SW-620, 45.2 µM (inactive); with U-251 it was 61.8 µM (inactive); in the assay with MOLT-4, 26.5 µM (inactive); with HCT-116, 25.5 µM (inactive); in the assay on Hs-578T, > 100 µM (inactive). Besides, the GI50 in the assay with OVCAR-5 was 45.6 µM (inactive); with ACHN, 40.5 µM (inactive); in the assay on 786-0, 57.5 µM (inactive); with PC-3, 33.7 µM (inactive); in the assay on NCI-H460, 35.6 µM (inactive); with EKVX, 96.4 µM (inactive). Moreover, the GI50 with CAKI-1 was 63.4 µM (inactive); in the assay on MDA-MB-231, 25.4 µM (inactive); with SR, 17.8 µM (inactive).

For the compound `NC(CSc1nc2ccccn2c1[N+](=O)[O-])C(=O)O` (stereo not given), the GI50 with SW-620, in the assay on U-251, with HCT-116, in the assay with Hs-578T, in the assay on OVCAR-5 and in the assay on ACHN was > 100 µM (inactive) each time. Moreover, the GI50 with 786-0, with PC-3, with NCI-H460, in the assay with SN12C, in the assay with EKVX and with NCI-H23 was > 100 µM (inactive) throughout. For the same compound, the GI50 in the assay on A498 is > 100 µM (inactive); in the assay on CAKI-1, > 100 µM (inactive); in the assay with MDA-MB-231, > 100 µM (inactive); in the assay on SR, 61.1 µM (inactive); in the assay with SNB-75 it was > 100 µM (inactive).

In the case of `Cc1nn2c(=O)c([N+](=O)[O-])c(/C=C/c3ccco3)nc2s1`, the GI50 with CCRF-CEM is 31.7 µM (inactive); in the assay on SW-620, 48.2 µM (inactive); with U-251, 29.4 µM (inactive); with MOLT-4, 31.7 µM (inactive); in the assay with HCT-116, 36.3 µM (inactive); in the assay on Hs-578T it was 27.8 µM (inactive). For the same compound, the GI50 was 73.1 µM (inactive) in the assay with OVCAR-5; 60.5 µM (inactive) in the assay with ACHN; 76 µM (inactive) in the assay on 786-0; 68.2 µM (inactive) in the assay with PC-3; 36.2 µM (inactive) in the assay with NCI-H460; 64.9 µM (inactive) in the assay on SN12C. Further, the GI50 in the assay on LOX IMVI is 17.6 µM (inactive); with EKVX, 26.4 µM (inactive); in the assay with NCI-H23, 50.5 µM (inactive); in the assay on CAKI-1 it was 52.6 µM (inactive); with MDA-MB-231 it was 63.4 µM (inactive); in the assay with SR, 28.2 µM (inactive). Moreover, the GI50 with SNB-75 is 31.5 µM (inactive).

As for `COc1cc(CN2CCCCC2)cc2cc(C(=O)O)c(=O)oc12`, the GI50 in the assay on CCRF-CEM, in the assay with SW-620, in the assay on U-251, with MOLT-4, with HCT-116 and in the assay on Hs-578T was > 100 µM (inactive) in each case. Besides, the GI50 in the assay on OVCAR-5, in the assay with ACHN, in the assay with 786-0, in the assay on PC-3, in the assay with NCI-H460 and with SN12C was > 100 µM (inactive) in each case. Besides, the GI50 in the assay on LOX IMVI, in the assay with EKVX, in the assay on NCI-H23, in the assay on A498, in the assay on CAKI-1 and with MDA-MB-231 was > 100 µM (inactive) throughout. The GI50 in the assay with SNB-75 was > 100 µM (inactive).

As for `CCOc1cc(C2CC(c3ccc(NS(=O)(=O)c4cc([N+](=O)[O-])ccc4C)cc3)=NN2c2ccc([N+](=O)[O-])cc2[N+](=O)[O-])ccc1O` (stereo not given), the GI50 in the assay on CCRF-CEM was 43.7 µM (inactive); in the assay on SW-620 it was 21.8 µM (inactive); with U-251 it was 9.48 µM (inactive); with MOLT-4 it was 23.3 µM (inactive); with HCT-116 it was 8.65 µM (inactive); in the assay on Hs-578T, 12.9 µM (inactive). Further, the GI50 in the assay on OVCAR-5 is 23.4 µM (inactive); with ACHN, 6.76 µM (inactive); with 786-0, 2.58 µM (inactive); in the assay with PC-3, 20 µM (inactive); with SN12C, 3.15 µM (inactive); in the assay on LOX IMVI it was 16.6 µM (inactive). Also, the GI50 in the assay with EKVX is 4.71 µM (inactive); in the assay with NCI-H23, 16.7 µM (inactive); in the assay with CAKI-1 it was 16.9 µM (inactive); in the assay with MDA-MB-231 it was 6.3 µM (inactive); in the assay on SR, 28.5 µM (inactive); with SNB-75, 5.82 µM (inactive).
